# Source: US20140205660A1, “Abscisic acid against cancer” (priority 2013, published 2014)
# Where two headings read alike, the source gives them in different places.
# How the values were obtained:
# [1] = tested on: C1498 transplanted tumor with myeloid leukemia; assay: Survival of C57BL/6J mice with C1498 transplanted tumor (Livingston); assay type: in vivo; conditions: for survival: oral
# Source text: For determination of cancer survival rate, she used C57BL/6J mice and C1498 transplanted tumor with myeloid leukemia purchased from the Jackson Laboratory in Maine. This type of cancer was lethal in mice in 10-15 days. ABA furnished by Hoffmann-Laroche was suspended in saline and administered as suspension. Groups of 10 mice were used for treatment for a total of 7 days.
# [2] = tested on: C1498 transplanted tumor with myeloid leukemia; conditions: groups of 10 mice, 7 days treatment, cited from earlier work
# cancer = conditions: 62 human cases, digestive ABA plus six vaccines, inconclusive cases not considered; cited from earlier work
# Lemna gibba G1 = conditions: cited from earlier work
# stomata opening = conditions: 10 mcM ABA extracellular, cited from earlier work
# leaf discs of V. Faba = conditions: cited from earlier work
# cancer cell lines = conditions: HELA, DU 145, HCT115, K562, C1498, HL-60, SMMC-7721, Tca8113; cited from earlier work
# [3] = tested on: HELA, DU145, HCT116 AND K562; conditions: cited from earlier work
# DU-145 (prostate cancer) = conditions: DU-145 tumor cells; cited from earlier work
# [4] = tested on: HL-60 (promyelocytic leukemia); conditions: HL-60 tumor cells; cited from earlier work
# TCA8113 cells = conditions: cited from earlier work
# nuclear protein Ki67 = conditions: proliferating tumor cells; cited from earlier work
# [5] = 50 mg/ml, Sigma-Aldrich material; cited from earlier work
# [6] = can rearrange to PA; cited from earlier work
compound,measurement,setting,value
"[S-(Z,E)]-5-(1-Hydroxy-2,6,6-trimethyl-4-oxo-2-cyclohexen-1-yl)-3-methyl-2,4-pentadienoic acid [ABA]",survivors,"[1]; group II, 1 mg/kg",90%
same,survival,[1]; 10 mg/kg,60%
same,survival,[1]; 100 mg/kg,90%
same,rate of survival at the end of 14 days,[2]; ABA 1 mg/kg i.p.,9 survivors
same,rate of survival at the end of 14 days,[2]; ABA 10 mg/kg i.p.,10 survivors
same,rate of survival at the end of 14 days,[2]; ABA 10 mg/kg oral,6 survivors
same,rate of survival at the end of 14 days,[2]; ABA 100 mg/kg oral,9 survivors
same,success rate,cancer,around 82%
same,potential increase in average,Lemna gibba G1; 10-100 mcm ABA,85 mV
same,EPD after ABA treatment,"Lemna gibba G1; after 15 hours ABA treatment, from −109 mV",−194 mV
same,inhibition of stomata opening,stomata opening; pH 6.15,98%
same,inhibition of stomata opening,stomata opening; pH 8.0,57%
same,half-life,leaf discs of V. Faba,6 to 8 h
same,effect against cancer cell lines,cancer cell lines,severe effect
same,effects in four human cancer cell lines,[3],"caused a tumor growth reduction, reduced cell proliferation rate, changed cell cycle progression, and produced induction of apoptosis"
same,changes in morphology of cancer cells,DU-145 (prostate cancer),growth in poor condition and nuclear pycnosis
same,changes in morphology of cancer cells,[4],absence of tumor cell nuclear membrane microvillus and presentation of typical apoptosis characteristics
same,Involucrin protein expression,TCA8113 cells; differentiation of TCA8113 affected by ABA,expressed
same,retinoic acid receptor beta (RARBETA) expression,TCA8113 cells; under treatment with ABA,expressed and not silenced
same,nuclear protein Ki67 expression,nuclear protein Ki67,reduced
CC1=CC(=O)CC(C)(C)C1(O)/C=C/C(C)=C\C(=O)O (racemic) [(+/−)-Abscisic acid],appearance of solution in ethanol,[5],clear to slightly hazy
"CC(C=CC1(O)C(C)=CC(=O)CC1(C)CO)=CC(=O)O (centres unmarked) [Metabolite C, 6′-hydroxy methyl ABA]",stability,[6],extremely unstable
"CC1=CC(=O)CC(C)(C)C1(O)/C=C/C(C)=C\C(=O)O (racemic) [racemic ABA, reference compound]",half-life,leaf discs of V. Faba,30 to 32 h
